Results reported in patent US20260266848A1, “COMPOSITIONS AND METHODS FOR DIAGNOSING AND TREATING DYSTONIA” (Duke University, priority 2023, published 2026).

How the values were obtained:
DYT-TOR1A MEF EVs = assay: Quantitative LC-MS/MS proteomics of EVs from drug-treated DYT-TOR1A MEF cultures (ritonavir, salubrinal); format: cell-based, mouse; parameters: key to RTV Corrective Direction / RTV Corrective Direction, Grwd1 / RTV Corrective Direction, Srrm2 / RTV Corrective Direction, Rbm17 / RTV Corrective Direction, Dcaf8 / RTV Corrective Direction, Edil3 / RTV Corrective Direction, Timp3 / RTV Corrective Direction, Heatr3 / RTV Corrective Direction, Brd4 / RTV Corrective Direction, P3h4 / RTV Corrective Direction, Pacsin3 / RTV Corrective Direction, Naa50 / RTV Corrective Direction, Lpar6 / RTV Corrective Direction, Ndrg1 / RTV Corrective Direction, Kntc1 / RTV Corrective Direction, Cdk11b / RTV Corrective Direction, Sumo1 / RTV Corrective Direction, Lsm4 / RTV Corrective Direction, Hmga2 / RTV Corrective Direction, Cstf1 / RTV Corrective Direction, Tes / RTV Corrective Direction, Sbno1 / RTV Corrective Direction, Unc119b / RTV Corrective Direction, Cfdp1 / RTV Corrective Direction, Sec61b: YES = protein abundance effect opposite to DYT/WT; conditions: EV protein abundance
WT MEF EVs = assay: Quantitative LC-MS/MS proteomics of EVs from ISRIB-treated WT MEF cultures; format: cell-based, mouse; parameters: key to ISRIB and DYT Parallel Direction / ISRIB and DYT Parallel Direction, Ctdsp1 / ISRIB and DYT Parallel Direction, Pcdh19 / ISRIB and DYT Parallel Direction, Tspan7 / ISRIB and DYT Parallel Direction, Myo1e / ISRIB and DYT Parallel Direction, Plpp3 / ISRIB and DYT Parallel Direction, Sh3bp4 / ISRIB and DYT Parallel Direction, Dnajc7 / ISRIB and DYT Parallel Direction, Drg1 / ISRIB and DYT Parallel Direction, Maea: YES = protein abundance effect similar to DYT/WT; conditions: EV protein abundance

Sptbn1
RTV Corrective Direction (DYT-TOR1A MEF EVs; DYT + RTV (ritonavir) vs DYT, direction compared with DYT/WT): YES | DYT + RTV/DYT Cohen's d (DYT-TOR1A MEF EVs; ritonavir (RTV)-treated DYT vs DYT): 3.27 | WT + ISRIB/WT Cohen's d (WT MEF EVs; ISRIB-treated WT vs WT): −0.82 | ISRIB and DYT Parallel Direction (WT MEF EVs; WT + ISRIB vs WT, direction compared with DYT/WT): YES
